{
  "source": "patent US11419883B2",
  "about": "“Inhibiting senescent processes in beta cells for the prevention of type 1 diabetes” (The Regents of the University of California, priority 2017, dated 2022)",
  "key": {"NOD islets [1]": {"test_system": "NOD islets", "experiment": "NOD islets treated with BH3 mimetics, senescence marker mRNA", "format": "cell-based, mouse", "settings": "NOD islets treated with BH3 mimetic", "source_text": "Example 4. BH3 mimetics preferentially eliminate SASP beta cells in NOD mice. To determine the role of SASP cells in the development of T1D, we next explored whether pro-survival checkpoints could be exploited to promote selective deletion of senescent beta cells. […] The Bcl-2 family contains a hydrophobic groove called the BH3 domain and ‘BH3 mimetics’ are pharmacological compounds that mimic the binding of the BH3-only initiator proteins to the pro-survival members. The BH3 mimetics can trigger apoptosis with some specificity in cells that have high levels of Bcl-2 or the related members. A number of small molecule inhibitors that target Bcl-2, Bcl-xL, Bcl-w or Mcl-1 proteins have been developed and some of them have been used to preferentially trigger apoptosis in senescent cells, both in vitro and in vivo. To determine which Bcl-2 pro-survival members were relevant to SASP islet cells, we treated NOD islets with BH3 mimetics that had different specificities. ABT-737 targets Bcl-2 and family members Bcl-xL and Bcl-w, ABT-199 selectively targets Bcl-2, and Maritoclax targets only Mcl-1. […]"}, "[2]": {"test_system": "CD45-depleted islet cells", "experiment": "SASP factors in conditioned media from CD45-depleted islet cells of treated NOD mice", "format": "in vivo", "settings": "compared to vehicle control mice", "procedure": "The secretome of islet cells from the 14-16 week NOD mice was analyzed. Islets depleted of CD45^+ cells were cultured in serum-free media and the resulting culture supernatant, hereafter referred to as conditioned media (CM) was analyzed using a bead-based multi-analyte luminex assay including a variety of key SASP factors and immune cell-specific non-SASP factors (IL-2, Granzyme B). Consistent with the immunohistochemistry analysis, the secretion of SASP factors (IL-6, Serpine1, G-CSF, Ccl2, Mmp9, Mmp12 and Igfpb3) was dramatically higher in the CD45-depleted islet cell populations from 14-week NOD mice as compared with 8-week mice. To determine the time-course of the stress response and SASP in beta cells, younger cohorts of 10 and 12-week old euglycemic NOD mice were analyzed by immunostaining for Cdknla and IL-6.\n(§1) Similarly, THP1 chemotaxis activity was reduced in the CM upon ABT-737 treatment of islets relative to vehicle-treated islets ex vivo."}, "immune compartment": {"test_system": "immune compartment", "experiment": "Flow cytometry of immune cell types in spleen, pancreatic lymph nodes and islets of treated mice", "format": "in vivo, NOD mice", "settings": "pancreatic lymph nodes, islets; for proportions or balance of effector T cells, B cells and regulatory T cells: relative to vehicle control mice", "procedure": "(§2) Example 5. Targeted depletion of SASP beta cells prevents diabetes in NOD mice The impact of senolytic treatments on immune cells was assessed. In islets from NOD mice treated with ABT-737, there was a 2-fold increase in apoptotic cells, as measured by flow cytometry for Annexin V and propidium iodide, in the endocrine compartment compared to vehicle control mice (FIG. 1). […] Flow cytometry was then used to examine the distributions and proportions of main lymphoid cell types involved in T1D in the spleen, pancreatic lymph nodes, and islets from vehicle control and ABT-737- and ABT-199-treated mice."}, "NOD mice": {"test_system": "NOD mice", "experiment": "Diabetes incidence in NOD mice after senolytic treatment", "format": "in vivo", "procedure": "FIG. 2 depicts the incidence of diabetes in a cohort of NOD mice treated with ABT-199 (n=5) or vehicle (n=5).\nFor studies using ABT-737, 10 week old euglycemic NOD/ShiltJ mice were given oral gavage of 100 mg/kg ABT-737 or vehicle (30% propylene glycol, 5% Tween-80 and 65% D5W) for 3 consecutive days followed by a break for 4 days and then again treated for 3 days (a total of 6 doses), and then untreated for 2 weeks followed by three consecutive days of ABT-737 or vehicle treatment and then allowed to age without further treatment until 28 weeks of age.\nTo determine whether clearance of SASP beta cells prevented diabetes, 10 week euglycemic NOD mice were administered ABT-737 by oral gavage for two weeks, followed by another dose at 16 weeks and allowed to age. Strikingly, while 60% of vehicle control mice were diabetic at this time, only 40% of ABT-737-treated mice became diabetic. We performed a similar study with ABT-199, administering the drug by oral gavage for 2 weeks from 11-13 weeks of age and allowing the mice to age to 30 weeks. Remarkably, while 100% of the controls became diabetic by 28 weeks, only 10% of the ABT-199-treated mice were diabetic (FIG. 2)."}, "SASP beta cells": {"test_system": "SASP beta cells", "experiment": "ABT-737 oral gavage in NOD mice, immunostaining of senescence and SASP markers in beta cells", "format": "in vivo", "settings": "oral gavage for 1 week", "procedure": "To determine whether ABT-737 targeted SASP beta cells for apoptosis in vivo, NOD mice were administered ABT-737 via oral gavage for 1 week followed by analysis of senescence and SASP markers by immunostaining."}, "[3]": {"test_system": "NOD MEFs and 8-week NOD islet cells", "experiment": "Paracrine senescence activity of conditioned media from islet cells of treated mice", "format": "cell-based, mouse", "settings": "CM from CD45-depleted islet cells of treated mice, on NOD MEFs and 8-week NOD islet cells", "procedure": "Example 3. Non-cell autonomous activities of islet SASP. To address whether the SASP of beta cells had non-cell autonomous effects resembling SASP, the ability of secreted factors from CD45-depleted islet cells of 14 wk NOD mice to induce senescence in NOD mouse embryonic fibroblasts (MEFs) and in 8 week NOD islets (when senescence is not observed) was assessed. When early passage NOD MEFs were cultured in the presence of CM from 14 wk CD45-depleted NOD islet cells (NCM) they induced Cdkn1a and Cdkn2a expression and increased SA-βgal activity, similarly to the senescent MEF CM control (SCM). The NCM was also capable of increasing the proportion of SA-βgal^+ cells in the cultured islets from 8 week old NOD mice.\nas §1"}, "human THP-1 cell line": {"test_system": "human THP-1 cell line", "experiment": "THP1 monocyte chemotaxis (transwell) with conditioned media of treated islets", "format": "cell-based", "settings": "treatment of islets ex vivo, relative to vehicle-treated islets", "procedure": "The ability of CM from NOD islet cells and human islets to induce monocyte chemotaxis using the transwell assay was tested using the human THP-1 cell line. NCM was capable of stimulating chemotaxis 3-fold over the SFM control, similarly to the positive control, serum-free media conditioned with recombinant mouse CCL2. In addition, CM from human islets expressing SASP induced THP1 chemotaxis ˜5-fold over the SFM control.\nas §1"}, "NOD islets [4]": {"test_system": "NOD islets", "experiment": "Apoptosis in islets of treated NOD mice (Annexin V/propidium iodide flow cytometry, TUNEL)", "format": "in vivo", "procedure": "FIG. 1 depicts the abundance of apoptotic cells (Annexin V^+) in the CD45-(endocrine enriched) fractions of NOD islets treated with ABT-737 for two weeks, compared to control vehicle-treated mice (n=2 mice per group), error bars are s.d. *p<0.05, two-tailed T-test.\nas §2"}, "[5]": {"test_system": "normal human donor islets", "experiment": "Bleomycin-induced senescence and SASP in normal human donor islets", "format": "cell-based", "procedure": "Next, normal human donor islets were treated with the chemotherapeutic agent bleomycin to induce double-strand DNA breaks and monitored the development of stress-induced senescence and SASP by qRT-PCR and secretion assays after 5 days, coinciding with the typical onset of SASP."}},
  "data": [
    {"compound": "O=C(c1ccccc1O)c1[nH]c(Cl)c(Cl)c1-n1c(C(=O)c2ccccc2O)cc(Cl)c1Cl", "note": "[Maritoclax]", "values": [
      {"measurement": "Cdkn1a mRNA from treated islets", "setting": "NOD islets [1]", "value": "did not have effects"},
      {"measurement": "Cdkn2a mRNA from treated islets", "setting": "NOD islets [1]", "value": "did not have effects"}
    ]},
    {"compound": "CC1(C)CCC(CN2CCN(c3ccc(C(=O)NS(=O)(=O)c4ccc(NCC5CCOCC5)c([N+](=O)[O-])c4)c(Oc4cnc5[nH]ccc5c4)c3)CC2)=C(c2ccc(Cl)cc2)C1", "note": "[ABT-199]", "values": [
      {"measurement": "Cdkn1a mRNA from treated islets", "setting": "NOD islets [1]", "value": "significant reduction"},
      {"measurement": "Cdkn2a mRNA from treated islets", "setting": "NOD islets [1]", "value": "significant reduction"},
      {"measurement": "levels of SASP factors in CM from CD45-depleted islet cells", "setting": "[2]", "value": "lower levels of most of the SASP factors"},
      {"measurement": "proportions of macrophages or dendritic cells", "setting": "immune compartment", "value": "no changes"},
      {"measurement": "proportions or balance of effector T cells, B cells and regulatory T cells", "setting": "immune compartment", "value": "no significant changes"},
      {"measurement": "treated mice diabetic", "setting": "NOD mice; dosed 2 weeks from 11-13 weeks of age, by 28 weeks, 100% of controls diabetic", "value": 10, "unit": "%"}
    ]},
    {"compound": "CN(C)CC[C@H](CSc1ccccc1)Nc1ccc(S(=O)(=O)NC(=O)c2ccc(N3CCN(Cc4ccccc4-c4ccc(Cl)cc4)CC3)cc2)cc1[N+](=O)[O-]", "note": "[ABT-737]", "values": [
      {"measurement": "Cdkn1a mRNA from treated islets", "setting": "NOD islets [1]", "value": "significant reduction"},
      {"measurement": "Cdkn2a mRNA from treated islets", "setting": "NOD islets [1]", "value": "significant reduction"},
      {"measurement": "Cdkn2a expression in beta cells (immunostaining)", "setting": "SASP beta cells", "value": "marked reduction"},
      {"measurement": "reduction in Cdkn2a+ beta cells", "setting": "SASP beta cells; quantification", "value": "over 40%"},
      {"measurement": "SASP marker Mmp2+ beta cells", "setting": "SASP beta cells; relative to controls", "value": "only rarely detected"},
      {"measurement": "levels of SASP factors in CM from CD45-depleted islet cells", "setting": "[2]", "value": "lower levels of most of the SASP factors"},
      {"measurement": "paracrine senescence activity of CM", "setting": "[3]", "value": "diminished"},
      {"measurement": "THP1 chemotaxis activity of CM", "setting": "human THP-1 cell line", "value": "reduced"},
      {"measurement": "increase in apoptotic cells (Annexin V+) in the endocrine compartment", "setting": "NOD islets [4]; CD45- fraction of NOD islets, treated two weeks, compared to vehicle control mice", "value": 2, "unit": "fold"},
      {"measurement": "TUNEL staining of apoptotic islet cells", "setting": "NOD islets [4]; pancreata from treated mice", "value": "showed TUNEL^+ cells within the islet"},
      {"measurement": "apoptosis in the immune compartment", "setting": "NOD islets [4]; relative to vehicle controls", "value": "no significant differences"},
      {"measurement": "proportions of macrophages or dendritic cells", "setting": "immune compartment", "value": "no changes"},
      {"measurement": "proportions or balance of effector T cells, B cells and regulatory T cells", "setting": "immune compartment", "value": "no significant changes"},
      {"measurement": "treated mice that became diabetic", "setting": "NOD mice; 10 week NOD mice, oral gavage two weeks plus another dose at 16 weeks, 60% of vehicle controls diabetic", "value": 40, "unit": "%"}
    ]},
    {"compound": "bleomycin", "values": [
      {"measurement": "expression of CDKN1A and CDKN2A (qRT-PCR)", "setting": "[5]; after 5 days", "value": "induced expression"},
      {"measurement": "SASP factors IL-6, IL-8, IL-1β and TNFα in CM (Luminex)", "setting": "[5]; compared with control islet CM", "value": "increased levels"}
    ]}
  ]
}
